What was measured:
3T3-L1 adipocytes = test: Fatty acid oxidation assay; assay type: cell-based, mouse; conditions: 100 nM insulin or 5 μM 4524-E7; normalized to DMSO-treated cells
Experimental: (A) 4524-E7 activates IR phosphorylation and its downstream signaling in 3T3-L1 adipocytes. […] The cells were lysed, and immunoprecipitated with PY20, and followed by Western blot using specific antibodies. (B) 4524-E7 stimulates glucose uptake in 3T3-L1 adipocytes. […] [3H]2-deoxyglucose was added, and the cells were further incubated for 10 min. The amount of [3H]2-deoxyglucose taken by adipocytes was measured. (C) 4524-E7 inhibits fatty acid oxidation. […] Results were normalized to DMSO-treated cells and expressed as mean±S.E.M. (*: P<0.05; **:P<0.01, Student's t-test, n=3). (D) IR knockdown in adipocytes decreases IR signaling by 4524-E7. […] Cells lysates were collected and analyzed by Western blot. (E) The glucose uptake induced by 4524-E7 in p85α knockout MEF cells. […] The uptaken [3H] 2-deoxyglucose was monitored by liquid scintillation counter. Results were expressed as mean±S.E.M. (*: P<0.05; **:P<0.01, Student's t-test, n=3).
Fatty acid oxidation was measured by determining the production of 3H2O from [9, 10-3H] palmitate. Differentiated NIH3T3-L1 were plated (0.5×10^5 cell per well) in a 12-well plate for 1 day. […] After incubation, the medium was removed and extracted with Chloroform/Methanol (2:1), and the aqueous phase containing 3H2O was collected and used for radioactivity measurement in a liquid scintillation counter.

p85α−/− MEF cells = test: [3H] 2-deoxyglucose transport in p85α knockout MEF cells; assay type: cell-based, mouse; conditions: insulin 100 nM 15 min or compound 5 μM 30 min
Experimental: Insulin signaling in the cell lysates were tested by immunoblotting. (B) DDN stimulates glucose uptake. […] [3H]2-deoxyglucose was then added, and the cells were further incubated for 10 min. [3H]2-deoxyglucose uptake by adipocytes was measured by scintillation counting (*: P<0.05 **: P<0.01 vs control, Student's t-test, n=3). (C) DDN synergizes insulin's signaling. […] Cell lysates were then prepared for Western blot using specific antibodies as indicated. […] 3H-2-deoxyglucose was then added, and the cells were further incubated for 10 min. 3H-2-deoxyglucose uptake by adipocytes was measured by scintillation counting (*: P<0.05; **: P<0.01, Student's t-test, n=3). (E) IR is necessary for DDN to induce ERK phosphorylation. […] Cell lysates were analyzed by Western blot. […] The uptake of 3H-2-deoxyglucose was monitored by liquid scintillation counting (*: P<0.05; **: P<0.01 vs control, Student's t-test, n=3).
(A) 4524-E7 activates IR phosphorylation and its downstream signaling in 3T3-L1 adipocytes. […] The amount of [3H]2-deoxyglucose taken by adipocytes was measured. […] Results were normalized to DMSO-treated cells and expressed as mean±S.E.M. (*: P<0.05; **:P<0.01, Student's t-test, n=3). […] Cells lysates were collected and analyzed by Western blot. […] 2-deoxyglucose was monitored by liquid scintillation counter. Results were expressed as mean±S.E.M. (*: P<0.05; **:P<0.01, Student's t-test, n=3). […]

IR = IR (Homo sapiens, UniProt P06213); test: Insulin competition assay (FITC-insulin, flow cytometry); assay type: binding; set-up: expressed in transfected cells; host or cells: CHO (CHO-IR, gift from Dr. Nicholas Webster, UCSD); conditions: CHO-IR cells
Sequence of IR (P06213 763-1382 limits assumed): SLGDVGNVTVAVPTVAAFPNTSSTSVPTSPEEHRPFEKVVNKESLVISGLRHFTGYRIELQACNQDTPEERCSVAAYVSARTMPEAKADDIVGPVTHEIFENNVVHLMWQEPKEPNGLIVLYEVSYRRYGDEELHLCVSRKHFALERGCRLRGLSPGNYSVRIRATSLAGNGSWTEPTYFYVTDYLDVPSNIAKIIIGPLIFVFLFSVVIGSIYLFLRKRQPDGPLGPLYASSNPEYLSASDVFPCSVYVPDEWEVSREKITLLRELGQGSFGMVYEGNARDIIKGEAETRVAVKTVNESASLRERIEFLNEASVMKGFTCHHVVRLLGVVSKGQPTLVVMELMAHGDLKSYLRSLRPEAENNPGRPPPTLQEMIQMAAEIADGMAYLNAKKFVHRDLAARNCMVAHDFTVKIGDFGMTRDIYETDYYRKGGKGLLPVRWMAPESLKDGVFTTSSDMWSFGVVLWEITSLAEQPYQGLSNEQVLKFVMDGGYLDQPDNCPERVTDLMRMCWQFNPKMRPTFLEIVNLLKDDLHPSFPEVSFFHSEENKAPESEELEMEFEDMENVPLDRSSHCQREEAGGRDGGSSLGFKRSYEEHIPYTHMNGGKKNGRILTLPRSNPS
Sequence of IR (P06213 28-758 limits assumed): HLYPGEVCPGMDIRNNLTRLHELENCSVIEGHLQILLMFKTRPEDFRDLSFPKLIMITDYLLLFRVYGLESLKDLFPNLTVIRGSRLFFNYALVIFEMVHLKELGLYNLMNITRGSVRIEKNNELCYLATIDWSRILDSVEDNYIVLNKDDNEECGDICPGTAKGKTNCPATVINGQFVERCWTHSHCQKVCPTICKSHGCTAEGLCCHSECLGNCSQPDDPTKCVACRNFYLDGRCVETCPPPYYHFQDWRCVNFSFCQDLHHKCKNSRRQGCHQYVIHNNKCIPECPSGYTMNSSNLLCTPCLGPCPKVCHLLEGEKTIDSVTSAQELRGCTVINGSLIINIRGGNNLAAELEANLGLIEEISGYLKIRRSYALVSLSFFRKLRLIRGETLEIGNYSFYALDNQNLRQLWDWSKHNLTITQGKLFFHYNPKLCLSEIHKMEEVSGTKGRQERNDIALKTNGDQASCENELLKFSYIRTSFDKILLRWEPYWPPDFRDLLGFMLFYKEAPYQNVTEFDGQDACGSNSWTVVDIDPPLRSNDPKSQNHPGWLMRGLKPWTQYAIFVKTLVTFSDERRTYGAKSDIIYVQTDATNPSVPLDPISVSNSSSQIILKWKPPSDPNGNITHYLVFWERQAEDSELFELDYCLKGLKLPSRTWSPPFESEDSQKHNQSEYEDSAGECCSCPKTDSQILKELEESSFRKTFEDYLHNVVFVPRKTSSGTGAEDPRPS
Experimental: Cells were washed three times, acquired on a FACScan, and the mean channel fluorescence (MCF) of bell-shaped histograms was analyzed using the CellQuest program.
Cells were washed three times, acquired on a FACScan, and the mean channel fluorescence (MCF) of bell-shaped histograms was analyzed using the FlowJ program.

Compound | lipid oxidation (3T3-L1 adipocytes) | [3H]-2-deoxyglucose uptake (p85α−/− MEF cells) | competition with FITC-insulin for IR binding (shift of fluorescent peak) (IR; 10 nM FITC-insulin, unlabelled insulin 1 μM) | competition with FITC-insulin for IR binding (shift of fluorescent peak) (IR; 100 nM FITC-insulin, unlabelled insulin 5 μM)
insulin: insulin, used as positive control | ~70 % of the control | neither insulin nor 4524-E7 was able to induce glucose uptake | – | –
O=C1c2ccccc2C(=O)C2SC(Nc3ccc(Cl)cc3)=NC12 (stereo not drawn) [4524-E7, 2-((4-chlorophenyl)amino)naphtho[2,3-d]thiazole-4,9(3aH,9aH)-dione] | ~50 % of the control | neither insulin nor 4524-E7 was able to induce glucose uptake | no significant change of the shifted peak position | –
CC(=O)Oc1ccc(OC(C)=O)c2c1C(=O)C(Cl)=C(Cl)C2=O [DDN, 5,8-diacetyloxy-2,3-dichloro-1,4-naphthoquinone] | – | – | – | No significant change of the shifted peak position

From patent US9040713B2, “Methods of managing blood sugar levels and compositions related thereto” (EMORY UNIVERSITY, priority 2010, dated 2015)
